Activity calls are given as the source filed them. No cut-off for these calls is given here.
Tests used:
[1] = biological target: Bromodomain-containing protein 4 (Homo sapiens, UniProt O60885); assay: Binding affinity to recombinant human BRD4 BD1 and BD2 expressed in Escherichia coli BL21 incubated for 2 hrs under shaking condition by HTRF assay
[2] = biological target: Heat shock protein HSP 90-alpha/Bromodomain-containing protein 4 (Homo sapiens) (UniProt P07900+O60885); assay: Protac activity at HSP90/BRD4 in human MV4-11 cells assessed as degradation of BRD4 at 40 to 1000 nM measured after 24 hrs by flow cytometry relative to control; format: cell-based; conditions: dose 40-1000 nM
MV4-11 = assay: Antitumor activity at human MV4-11 cells xenografted in BALB/c mouse assessed as tumor growth inhibition at 25 to 100 mg/kg, ip administered for 3 to 4 weeks; format: functional, organism-based; conditions: dose 25-100 mg/kg, time 3-4 weeks

| SMILES | IC50 [1] [nM] | Activity [2] [%] | TGI (MV4-11) |
| --- | --- | --- | --- |
| Cc1sc2c(c1C)C(c1ccc(Cl)cc1)=N[C@@H](CC(=O)N1CCC(CN3CCN(Cc4ccc(-n5c(O)nnc5-c5cc(C(C)C)c(O)cc5O)cc4)CC3)CC1)c1nnc(C)n1-2 [listing 1 of 3 here] | 100 | – | – |
| Cc1sc2c(c1C)C(c1ccc(Cl)cc1)=N[C@@H](CC(=O)N1CCC(CN3CCN(Cc4ccc(-n5c(O)nnc5-c5cc(C(C)C)c(O)cc5O)cc4)CC3)CC1)c1nnc(C)n1-2 [listing 2 of 3 here] | – | > 50 | Active |
| CCc1cc(-c2nnc(O)n2-c2ccc(CN3CCN(CC4CCN(C(=O)C[C@@H]5N=C(c6ccc(Cl)cc6)c6c(sc(C)c6C)-n6c(C)nnc65)CC4)CC3)cc2)c(O)cc1O | 100 | > 50 | – |
| Cc1sc2c(c1C)C(c1ccc(Cl)cc1)=N[C@@H](CC(=O)N1CCC(CN3CCN(Cc4ccc(-n5c(O)nnc5-c5cc(C(C)C)c(O)cc5O)cc4)CC3)CC1)c1nnc(C)n1-2 [listing 3 of 3 here] | 100 | – | – |
| CCc1cc(-c2nnc(C(=O)NCC(F)(F)F)n2-c2ccc(CN3CCN(CC4CCN(C(=O)C[C@@H]5N=C(c6ccc(Cl)cc6)c6c(sc(C)c6C)-n6c(C)nnc65)CC4)CC3)cc2)c(O)cc1O | 100 | – | Active |

Now from value to compound, other results behind:

| IC50 [1] [nM] | Activity [2] [%] | SMILES | TGI (MV4-11) |
| --- | --- | --- | --- |
| < 100 | – | Cc1sc2c(c1C)C(c1ccc(Cl)cc1)=N[C@@H](CC(=O)N1CCC(CN3CCN(Cc4ccc(-n5c(O)nnc5-c5ccc(O)cc5O)cc4)CC3)CC1)c1nnc(C)n1-2 | – |
| < 100 | – | Cc1sc2c(c1C)C(c1ccc(Cl)cc1)=N[C@@H](CC(=O)N[C@@H](C)c1ccc(CN3CCC(Cc4ccc(-n5c(O)nnc5-c5cc(C(C)C)c(O)cc5O)cc4)CC3)cc1)c1nnc(C)n1-2 | – |
| < 100 | – | Cc1sc2c(c1C)C(c1ccc(Cl)cc1)=N[C@@H](CC(=O)NCCOCCN1CCC(Cc3ccc(-n4c(O)nnc4-c4cc(C(C)C)c(O)cc4O)cc3)CC1)c1nnc(C)n1-2 | – |
| < 100 | – | CCc1cc(-c2nnc(O)n2-c2ccc(CN3CCC(C(=O)N4CCC(CNC(=O)C[C@@H]5N=C(c6ccc(Cl)cc6)c6c(sc(C)c6C)-n6c(C)nnc65)C4)CC3)cc2)c(O)cc1O (stereo not given in full) | – |
| < 100 | – | Cc1sc2c(c1C)C(c1ccc(Cl)cc1)=N[C@@H](CC(=O)N1CCC(CCN3CCC(Cc4ccc(-n5c(O)nnc5-c5cc(C(C)C)c(O)cc5O)cc4)CC3)CC1)c1nnc(C)n1-2 | – |
| < 100 | > 50 | Cc1sc2c(c1C)C(c1ccc(Cl)cc1)=N[C@@H](CC(=O)NCC(=O)NCC1CCN(C(=O)C3CCN(Cc4ccc(-n5c(O)nnc5-c5cc(C(C)C)c(O)cc5O)cc4)CC3)CC1)c1nnc(C)n1-2 | – |

— ChEMBL document CHEMBL4680366, “Tumor-Targeted Bivalent Protein Degradation for Application in Cancer Therapy” (ACS Med Chem Lett, 2021)
